Source: patent US20240382399A1, “ANTISEBOGENIC COMPOSITION, FORMULATION AND USE OF THE COMPOSITION” (CHEMYUNION LTDA., priority 2021, published 2024)

Legend:
C. acnes = conditions: concentrations of 6.9 mM (1 mg/mL) and 8.6 mM (1 mg/mL); cited from earlier work
5-alpha reductase type 1 = assay: Expression of 5-alpha reductase type 1 in cultured human keratinocytes (real-time PCR); type: cell-based; conditions: Testosterone 1.10^-8 mol/L, 24 hours; compared to the baseline control, P<0.05
Procedure: The objective of the test was to evaluate the effects of P19/7 on the expression of 5-alpha reductase type 1 in cultured human keratinocytes. The enzyme 5-alpha-reductase […] acts in the conversion of testosterone into dihydrotestosterone (DHT), a steroid responsible for modulating sebaceous secretion.
To carry out the assay, commercially obtained human keratinocytes (Rio de Janeiro Cell Bank—BCRJ) were cultivated in specific culture media and maintained in a humid incubator at 37° C. containing 5% CO2. When they reached confluence (3rd to 5th passage), cells were seeded in a 6-well plate and incubated with 0.0049% (w/v) P19/7+Testosterone (1.10^−8 mol/L) or Testosterone (1.10^−8 mol/L) for a period of 24 hours. After 24 hours of incubation, RNA was extracted using the PureLink RNA Mini Kit (Thermo Fisher) and quantified using the NanoDrop Lite spectrophotometer (Thermo Scientific). Tests were performed on a StepOnePlus device (Applied Byosystems). To perform real-time PCR, a commercially available analysis system was used (TaqMan® Gene Expression Assays; SRD5A1: (HS00971643_G1, 5-alpha reductase type 1); B2M: Hs00984230_m1; Applied Biosystems), with primers and probes based on sequence consensus using the TaqMan® RNA-to-CT™ 1-step kit (Applied Byosystems). […] Gene expression of 5-alpha reductase was calculated according to Pfaffl (2001).

Structure (SMILES): CCCCCCCC(=O)O [caprylic acid]
- inhibitory effect on the growth of C. acnes (C. acnes): no apparent inhibitory effect

Structure (SMILES): C[C@]12CC[C@H]3[C@@H](CCC4=CC(=O)CC[C@@]43C)[C@@H]1CC[C@@H]2O [testosterone, Testosterone]
- increase of relative expression of type 1 5-alpha-reductase (5-alpha reductase type 1): 13%
